Patent US20080058324A1, “Alpha-Keto Carbonyl Calpain Inhibitors” (SANTHERA PHARMACEUTICALS (SCHWEIZ) AG, priority 2004, published 2008)

Tests used:
human μ-calpain = target: T1, human μ-calpain (Homo sapiens, UniProt P07384); test: Enzymatic Calpain Inhibition Assay; type: biochemical; conditions: read-out: Calp I IC50
T1 construct: purchased Calbiochem
T1 sequence (P07384 1-714): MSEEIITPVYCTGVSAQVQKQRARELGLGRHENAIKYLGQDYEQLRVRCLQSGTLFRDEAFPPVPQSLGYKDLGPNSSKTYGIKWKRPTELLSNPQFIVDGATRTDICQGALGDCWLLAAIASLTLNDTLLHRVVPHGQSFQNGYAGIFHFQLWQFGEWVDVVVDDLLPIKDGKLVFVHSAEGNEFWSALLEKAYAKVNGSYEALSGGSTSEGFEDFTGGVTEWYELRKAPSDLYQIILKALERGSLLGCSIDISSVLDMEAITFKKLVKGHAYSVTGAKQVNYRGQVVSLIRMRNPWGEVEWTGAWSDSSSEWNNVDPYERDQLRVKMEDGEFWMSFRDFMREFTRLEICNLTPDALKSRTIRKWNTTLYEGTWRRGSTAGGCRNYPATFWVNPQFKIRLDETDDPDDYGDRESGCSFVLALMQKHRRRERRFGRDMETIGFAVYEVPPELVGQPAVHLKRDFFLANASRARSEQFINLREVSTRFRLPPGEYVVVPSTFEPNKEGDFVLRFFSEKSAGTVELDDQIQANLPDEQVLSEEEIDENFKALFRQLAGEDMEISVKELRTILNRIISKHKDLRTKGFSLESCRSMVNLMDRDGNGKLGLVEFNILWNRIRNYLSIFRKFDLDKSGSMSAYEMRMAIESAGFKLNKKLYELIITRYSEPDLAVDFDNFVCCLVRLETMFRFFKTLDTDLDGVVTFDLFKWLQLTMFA
T1 sequence (P04632 1-268 partner): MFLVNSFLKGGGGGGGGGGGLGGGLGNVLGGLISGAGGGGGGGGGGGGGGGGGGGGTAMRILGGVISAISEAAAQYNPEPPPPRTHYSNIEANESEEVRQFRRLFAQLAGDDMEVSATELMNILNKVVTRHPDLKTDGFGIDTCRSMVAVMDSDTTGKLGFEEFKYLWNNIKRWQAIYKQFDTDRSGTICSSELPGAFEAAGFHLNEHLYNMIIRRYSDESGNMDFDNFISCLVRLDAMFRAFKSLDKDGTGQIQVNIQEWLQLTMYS
Method: The Ki value was also determined in some cases. These criteria were used to measure the inhibitory effect of the compounds (I) on calpain I, calpain II and cathepsin B.
The inhibitory properties of calpain inhibitors are tested in 100 μl of a buffer containing 100 mM imidazole pH 7.5, 5 mM L-Cystein-HCl, 5 mM CaCl2, 250 μM of the calpain fluorogenic substrate Suc-Leu-Tyr-AMC (Sigma) (Sasaki et al., J. Biol. Chem., 1984, 259, 12489-12949) dissolved in 2.5 μl DMSO and 0.5 μg of human μ-calpain (Calbiochem). The inhibitors dissolved in 1 μl DMSO are added to the reaction buffer. The fluorescence of the cleavage product 7-amino-4-methylcoumarin (AMC) is followed in a SPECTRAmax GEMINI XS (Molecular Device) fluorimeter at λex=360 nm and λem=440 nm at 30° C. during 30 min at intervals of 30 sec in 96-well plates (Greiner). The initial reaction velocity at different inhibitor concentrations is plotted against the inhibitor concentration and the IC50 values determined graphically.

[1] = test system: cellular calpains in C2C12 myoblasts; test: Calpain Inhibition Assay in C2C12 Myoblasts; type: cell-based; conditions: read-out: Calp I IC50 Myoblast
Method: This assay is aimed at monitoring the ability of the substance to inhibit cellular calpains. C2C12 myoblasts are grown in 96-well plates in growth medium (DMEM, 20% foetal calf serum) until they reach confluency. The growth medium is then replaced by fusion medium (DMEM, 5% horse serum). 24 hours later the fusion medium is replaced by fusion medium containing the test substances dissolved in 1 μl DMSO. After 2 hours of incubation at 37° C. the cells are loaded with the calpain fluorogenic substrate Suc-Leu-Tyr-AMC at 400 μM in 50 μl of a reaction buffer containing 135 mM NaCl; 5 mM KCl; 4 mM CaCl2; 1 mM MgCl2; 10 mM Glucose; 10 mM HEPES pH 7.25 for 20 min at room temperature. The calcium influx, necessary to activate the cellular calpains, is evoked by the addition of 50 μl reaction buffer containing 20 μM of the calcium ionophore Br-A-23187 (Molecular Probes). The fluorescence of the cleavage product AMC is measured as described above during 60 min at 37° C. at intervals of 1 min. The IC50 values are determined as described above. Comparison of the IC50 determined in the enzymatic calpain inhibition assay to the IC50 determined in the C2C12 myoblasts calpain inhibiton assay, allows to evaluate the cellular uptake or the membrane permeability of the substance.

20S Proteasome = target: T2, 20S Proteasome (Oryctolagus cuniculus, UniProt G1T4Q9); test: 20S Proteasome Assay; type: biochemical, Rabbit; conditions: read-out: 20S Prot IC50
T2 sequence (G1T4Q9 60-263): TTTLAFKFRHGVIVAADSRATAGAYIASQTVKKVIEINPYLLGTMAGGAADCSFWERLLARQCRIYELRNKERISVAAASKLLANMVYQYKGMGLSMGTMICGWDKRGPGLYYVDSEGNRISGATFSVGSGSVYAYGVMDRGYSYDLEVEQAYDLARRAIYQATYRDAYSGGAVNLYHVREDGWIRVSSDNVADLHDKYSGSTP
Method: 25 μl of a reaction buffer containing 400 μM of the fluorogenic substrate Suc-Leu-Leu-Val-Tyr-AMC (Bachem) are dispensed per well of a white microtiter plate. Test compounds dissolved in 0.5 μl DMSO are added. To start the reaction; 25 μl of reaction buffer containing 35 ng of enzyme (20S Proteasome, Rabbit, Calbiochem) are added. The increase in fluorescence (excitation at 360 nm; emission at 440 nm) is measured over 30 min at 30° C. at 30″. The IC50's are then determined from the slopes.

[2] = test system: experimental muscular dystrophy in hamster; conditions: Journal of Pharmacobiodynamics, 1987, 10, 678; cited from earlier work

Row | Compound | IC50 (human μ-calpain) [nM] | IC50 [1] [nM] | IC50 (20S Proteasome) [nM] | melting point [°C] | life-prolonging effect [2]
1 | CCNC(=O)C(=O)C(Cc1ccc(Cl)cc1)NC(=O)C(NC(=O)C(Cc1ccccc1)NC(=O)CCc1cccs1)C(C)C (centres unmarked) [Example 3] | 24 | 20 | 42 | 244 to 246 | –
2 | CCOC(=O)[C@H]1O[C@@H]1C(=O)N[C@@H](CC(C)C)C(=O)NCCC(C)C [Example E-64-d] | – | – | – | – | life-prolonging effect
